Assay results: patent US8338401B2, “Coumarin-amide derivatives and its preparation, said drug composition and its use” (Institute of Materia Medica Chinese Academy of Medical …, priority 2002, dated 2012)
Values after ≈ are worked out from the molar mass of the structure shown. Like-named read-outs stand apart in the source and are kept apart here.

Key:
[1] = test system: kidney tubulointerstitial fibrosis caused by unilateral ureteral obstruction (UUO) in rats; experiment: Inhibition of kidney tubulointerstitial fibrosis caused by unilateral ureteral obstruction (UUO) in rats; assay type: in vivo, Male Wistar rats; settings: UUO rats; for BUN: oral for 16 days
Method: Male Wistar rats with initial body weights of 180˜230 g were used. Unilateral ureteral obstruction was performed under pentobarbital anesthesia (35 mg/kg) and sterile conditions. Via a midline incision, the left ureteral was ligated. Sham surgery was performed by making a midline incision but leaving ureteral intact. Following surgery, rats were randomly divided into sham, model, Benazepril (4 mg/kg/day) and Losartan (10 mg/kg/day) as positive control, and compound 149 (5 mg/kg/day, 10 mg/kg/day and 20 mg/kg/day). Starting 2 day before surgery, Benazepril, Losartan and compound 149 were administered for 16 days orally. BUN and creatinine in serum were determined in the 11th and 16th day (Table 6) following initiation of Benazepril, Losartan and compound 149 treatment, at which time animals were killed and the kidneys were harvested. Tissues were dissected, weighed, fixed in 10% formaldehyde and embedded in paraffin wax for pathological analysis.

[2] = test system: chronic renal failure induced by 5/6 nephrectomy in rats; assay type: in vivo, Male Wistar rats
Method: The model on chronic renal failure induced by partial renal ablation in rats was set up according to the Guidelines of Pre-clinic Research for New Drugs. Male Wistar rats with initial body weights of 200 g, anesthetized with 35 mg/kg of pentobarbital i.p., the right kidney was removed, and the upper and lower pole […] of the left kidney were resected, stop bleeding, closed the abdominal and sutured. Four weeks following surgery, the BUN, creatinine and urinary protein in rats were determined. […] Rats were randomly divided into seven groups, 30/group, with sham, model, Benazepril (4 mg/kg/day) and Losartan (10 mg/kg/day) as positive control, and compound 149 groups (7.5 mg/kg/day, 15 mg/kg/day and 30 mg/kg/day, respectively). All the groups were administered intragastrically, once per day and 6 (six) times per week, till 16 weeks post surgery. Body weights were weighed to observe the growth of the rats. The above indexes were determined every 4 weeks up to the 16th week following the initiation of drug administration, and at each time, a number of animals were sacrificed and the kidneys were harvested for pathological analysis. Pathological lesions in chronic renal failure models are mainly glomerulosclerosis and interstitial fibrosis. According to the damage extents, glomerulosclerosis is divided into five grades (0 IV). 0 grade means no glomerulus pathological changes at all, and IV grade means ultimately glomerular sclerosis and glassy pathological changes.

TGF-β receptor = TGF-β receptor binding antagonism assay ([125I]TGF-β1) in Balb/c 3T3 cells; settings: for Inhibition Rate (%): 10 μg/ml, 50 pmol/L [125I]TGF-β1
Method: Balb/c 3T3 cells were seeded in 24 well-plate and cultured in Dulbecco's modified Eagle's medium (DMEM) supplemented with 10% fetal bovine serum, in 37° C. and 5% CO2, for 2-4 days. When cells were at a near-confluent, medium was changed to the binding buffer (50 mmol/L HEPES containing NaCl, KCl, MgSO4 and CaCl2). The assay was initiated by addition of 50 pmol/L [^125I]TGF-β1 and test compounds. After incubation for 210-240 minutes, the medium was removed, and cells were washed with ice-cold binding buffer. Non-specific bindings in the presence of 10 nmol/L TGF-β1 were determined. The cells were then solubilized using buffer containing Triton X-100 and the radioactivity was measured (see Table 4).

[3] = 8th week after administration (12 weeks after nephrectomy), 4 mg/kg
[4] = 8th week after administration (12 wk after nephrectomy), 4 mg/kg
[5] = 12th week after administration (16 weeks after nephrectomy), 4 mg/kg
[6] = 12th week after administration (16 wk after nephrectomy), 4 mg/kg
[7] = 16 weeks after nephrectomy (12 weeks since administration), 4 mg/kg/day
[8] = 8th week after administration (12 weeks after nephrectomy), 10 mg/kg
[9] = 8th week after administration (12 wk after nephrectomy), 10 mg/kg
[10] = 12th week after administration (16 weeks after nephrectomy), 10 mg/kg
[11] = 12th week after administration (16 wk after nephrectomy), 10 mg/kg

Compound: CCOC(=O)[C@H](CCc1ccccc1)N[C@H]1CCc2ccccc2N(CC(=O)O)C1=O [Benazepril, reference compound]
- inflammatory cell infiltration and tubulointerstitial fibrosis (pathological changes) [1]: more significant
- animals with focal abscess formations in the medulla of kidney ([1]; 4 mg/kg/day): 4/7
- BUN ([1]; 4.0 mg/kg): 20.99 ± 1.58 mg/dL
- BUN [2, 3]: 37.66 ± 8.895 mg/dL
- serum creatinine (Scr.) [2, 3]: 3.54 ± 1.140 mg/dL
- AII (Angiotensin II) [2, 4]: 74.3 ± 13.2 pg/mL
- UP (urinary protein) [2, 4]: 51.1 ± 23.6 mg/day
- serum TGF-β1 [2, 4]: 40.9 ± 26.6 ng/mL
- Glomerulosclerosis Grade (%): 0 ([2]; 8 wk after ad., 4 mg/kg/day): 12.2 ± 19.0%
- Glomerulosclerosis Grade (%): I ([2]; 8 wk after ad., 4 mg/kg/day): 29.6 ± 23.9%
- Glomerulosclerosis Grade (%): II ([2]; 8 wk after ad., 4 mg/kg/day): 28.1 ± 18.1%
- Glomerulosclerosis Grade (%): III ([2]; 8 wk after ad., 4 mg/kg/day): 19.6 ± 24.2%
- Glomerulosclerosis Grade (%): IV ([2]; 8 wk after ad., 4 mg/kg/day): 5.9 ± 11.2%
- Glomerulosclerosis Total Grade ([2]; 8 wk after ad., 4 mg/kg/day): 5.5 ± 2.6
- BUN [2, 5]: 39.48 ± 7.109 mg/dL
- serum creatinine (Scr.) [2, 5]: 2.28 ± 0.70 mg/dL
- AII (Angiotensin II) [2, 6]: 47.8 ± 12.0 pg/mL
- UP (urinary protein) [2, 6]: 66.3 ± 31.9 mg/day
- serum TGF-β1 [2, 6]: 12.8 ± 14.8 ng/mL
- inflammatory cell infiltration in kidney tissues ([2]; 12 weeks after nephrectomy (8 weeks since administration), 4 mg/kg/day, some animals): severe
- Glomerulosclerosis Grade (%): 0 ([2]; 12 wk after ad., 4 mg/kg/day): 0%
- Glomerulosclerosis Grade (%): I ([2]; 12 wk after ad., 4 mg/kg/day): 0%
- Glomerulosclerosis Grade (%): II ([2]; 12 wk after ad., 4 mg/kg/day): 19.1 ± 27.1%
- Glomerulosclerosis Grade (%): III ([2]; 12 wk after ad., 4 mg/kg/day): 46.2 ± 15.6%
- Glomerulosclerosis Grade (%): IV ([2]; 12 wk after ad., 4 mg/kg/day): 34.8 ± 29.9%
- Glomerulosclerosis Total Grade ([2]; 12 wk after ad., 4 mg/kg/day): 9.8 ± 1.4
- glomerulus pathological score, rank among groups [2, 7]: the highest
- inflammatory cell infiltration in kidney matrix [2, 7]: medium-severe

Compound: COc1cc2oc(=O)c(C(=O)Nc3ccc(S(=O)(=O)NC(=N)N)cc3)cc2cc1Cl [Compound 92, 3-(4′-guanidinosulfonylphenylamidocarbonyl)-6-chloro-7-methoxy-coumarin]
- Inhibition Rate (%) (TGF-β receptor): 106.4%

Compound: COc1cc2oc(=O)c(C(=O)Nc3ccc(C(=O)O)c(O)c3)cc2cc1Cl [Compound 87, 3-(3′-hydroxy-4′-carboxy-phenylamidocarbonyl)-6-chloro-7-methoxy-coumarin]
- Inhibition Rate (%) (TGF-β receptor): 91.1%

Compound: COc1ccc2cc(C(=O)Nc3cccc(C(=O)O)c3)c(=O)oc2c1 [Compound 2, 3-(m-carboxyphenylamidocarbonyl)-7-methoxycoumarin]
- IC50 (TGF-β receptor): 13.8 mg/L (≈ 40.7 µM)
- Inhibition Rate (%) (TGF-β receptor): 74.1%
- melting point: > 300 °C

Compound: CCOC(=O)c1cc2cc([N+](=O)[O-])c(OC)c(OC)c2oc1=O [Compound 227, 3-ethoxycarbonyl-6-nitro-7,8-dimethoxy-coumarin]
- melting point: 191 °C

Compound: CCOC(=O)c1cc2cc(Cl)c(O)c([N+](=O)[O-])c2oc1=O [Compound 241, 3-ethoxycarbonyl-6-chloro-7-hydroxy-8-nitro-coumarin]
- melting point: 195 °C

Compound: COc1ccc2cc(-c3nnc(-c4ccccc4)o3)c(=O)oc2c1 [Compound 206, 3-(2′-phenyl-1′,3′,4′-oxadiazol-5′yl)-7-methoxycoumarin]
- Inhibition Rate (%) (TGF-β receptor): −0.7%

Compound: COc1cc2oc(=O)c(C(=O)Nc3ccc(O)c(C(=O)O)c3)cc2cc1Cl [Compound 88, 3-(3′-carboxy-4′-hydroxy-phenylamidocarbonyl)-6-chloro-7-methoxy-coumarin]
- IC50 (TGF-β receptor): 5.3 mg/L (≈ 13.6 µM)
- Inhibition Rate (%) (TGF-β receptor): 111.2%
- melting point: > 300 °C

Compound: CCc1cc2cc(C(=O)Nc3ccc(C(=O)O)c(O)c3)c(=O)oc2cc1OC [Compound 26, 3-(3′-hydroxy-4′-carboxy-phenylamidocarbonyl)-6-ethyl-7-methoxy-coumarin]
- IC50 (TGF-β receptor): 8.5 mg/L (≈ 22.2 µM)
- Inhibition Rate (%) (TGF-β receptor): 95.4%
- melting point: 266 °C

Compound: CCOC(=O)c1cc2cc([N+](=O)[O-])c(OC)c([N+](=O)[O-])c2oc1=O
- melting point: 152 °C

Compound: CCc1cc2cc(C(=O)Nc3ccc(O)c(C(=O)O)c3)c(=O)oc2cc1OC [Compound 27, 3-(3′-carboxy-4′-hydroxy-phenylamidocarbonyl)-6-ethyl-7-methoxy-coumarin]
- Inhibition Rate (%) (TGF-β receptor): 77.2%

Compound: CCOC(=O)c1cc2cc(CC)c(O)c([N+](=O)[O-])c2oc1=O [Compound 233, 3-ethoxycarbonyl-6-ethyl-7-hydroxy-8-nitro-coumarin]
- melting point: 143 °C

Compound: COc1cc2oc(=O)c(C(=O)Nc3ccc(C(=O)O)c(O)c3)cc2cc1Br [Compound 96, 3-(3′-hydroxy-4′-carboxy-phenylamidocarbonyl)-6-bromo-7-methoxy-coumarin]
- Inhibition Rate (%) (TGF-β receptor): 82.3%

Compound: COc1ccc2cc(C(=O)Nc3ccc(S(=O)(=O)Nc4cc(C)on4)cc3)c(=O)oc2c1C [Compound 55]
- Inhibition Rate (%) (TGF-β receptor): 52.3%

Compound: CCOC(=O)c1cc2cc([N+](=O)[O-])c(O)c([N+](=O)[O-])c2oc1=O
- melting point: 176 °C

Compound: COc1ccc2cc(C(=O)Nc3ccc(C(=O)O)c(O)c3)c(=O)oc2c1 [Compound 7, 3-(3′-hydroxy-4′-carboxyphenylamidocarbonyl)-7-methoxy coumarin]
- IC50 (TGF-β receptor): 7.8 mg/L (≈ 22 µM)
- Inhibition Rate (%) (TGF-β receptor): 94.2%
- melting point: 279 °C (dec.)

Compound: COc1ccc2cc(C(=O)Nc3ccc(S(=O)(=O)NC(=N)N)cc3)c(=O)oc2c1OC [Compound 66, 3-(4′-guanidinosulfonylphenylamidocarbonyl)-7,8-dimethoxy-coumarin]
- Inhibition Rate (%) (TGF-β receptor): 52.3%

Compound: CCCCc1nc(Cl)c(CO)n1Cc1ccc(-c2ccccc2-c2nn[nH]n2)cc1 [Losartan, reference compound]
- inflammatory cell infiltration and tubulointerstitial fibrosis (pathological changes) [1]: significantly attenuated
- BUN ([1]; 10.0 mg/kg): 23.88 ± 2.94 mg/dL
- BUN [2, 8]: 25.64 ± 5.116 mg/dL
- serum creatinine (Scr.) [2, 8]: 2.34 ± 0.268 mg/dL
- AII (Angiotensin II) [2, 9]: 96.7 ± 32.1 pg/mL
- UP (urinary protein) [2, 9]: 32.7 ± 10.3 mg/day
- serum TGF-β1 [2, 9]: 18.7 ± 9.2 ng/mL
- Glomerulosclerosis Grade (%): 0 ([2]; 8 wk after ad., 10 mg/kg/day): 54.4 ± 29.2 %
- Glomerulosclerosis Grade (%): I ([2]; 8 wk after ad., 10 mg/kg/day): 31.9 ± 20.0%
- Glomerulosclerosis Grade (%): II ([2]; 8 wk after ad., 10 mg/kg/day): 13.7 ± 14.0%
- Glomerulosclerosis Grade (%): III ([2]; 8 wk after ad., 10 mg/kg/day): 1.1 ± 3.3 %
- Glomerulosclerosis Grade (%): IV ([2]; 8 wk after ad., 10 mg/kg/day): 0%
- Glomerulosclerosis Total Grade ([2]; 8 wk after ad., 10 mg/kg/day): 2.8 ± 1.0
- BUN [2, 10]: 37.84 ± 5.672 mg/dL
- serum creatinine (Scr.) [2, 10]: 2.21 ± 0.48 mg/dL
- AII (Angiotensin II) [2, 11]: 38.9 ± 17.4 pg/mL
- UP (urinary protein) [2, 11]: 39.3 ± 14.2 mg/day
- serum TGF-β1 [2, 11]: 11.8 ± 12.6 ng/mL
- Glomerulus pathological scores, compared with the model group ([2]; 12 weeks after nephrectomy (8 weeks since administration), compound 149 30 mg/kg, Losartan 10 mg/kg/day): less than that of the model group significantly
- rates of 0 grade glomerylus in residual kidney, compared with the model group ([2]; 12 weeks after nephrectomy (8 weeks since administration), compound 149 30 mg/kg, Losartan 10 mg/kg/day, P<0.05): higher than that of the model group with significant difference
- Glomerulosclerosis Grade (%): 0 ([2]; 12 wk after ad., 10 mg/kg/day): 0%
- Glomerulosclerosis Grade (%): I ([2]; 12 wk after ad., 10 mg/kg/day): 10.0 ± 2.9%
- Glomerulosclerosis Grade (%): II ([2]; 12 wk after ad., 10 mg/kg/day): 45.7 ± 17.7%
- Glomerulosclerosis Grade (%): III ([2]; 12 wk after ad., 10 mg/kg/day): 41.9 ± 25.6%
- Glomerulosclerosis Grade (%): IV ([2]; 12 wk after ad., 10 mg/kg/day): 2.8 ± 4.8%
- Glomerulosclerosis Total Grade ([2]; 12 wk after ad., 10 mg/kg/day): 7.2 ± 1.3
- number of grade III glomerulus, compared with the model group ([2]; 16 weeks after nephrectomy (12 weeks since administration), compound 149 30 mg/kg (P<0.01), Losartan 10 mg/kg/day (P<0.05)): less than that of the model group significantly
